# Patent US7892755B2, “Screening method” (Takeda Pharmaceutical Company Limited, priority 2004, dated 2011)
# Tests used:
# Type in all cases: cell-based
# control CHO-K1 cells = test: Changes in intracellular calcium levels on FLIPR, control CHO-K1 cells with only expression vector pAKKO-111H
# Experimental: (§1) The CHO-K1 cell line (purchased from ATCC) was incubated in HAM F-12 medium (Invitrogen) supplemented with 10% fetal calf serum, unless otherwise indicated. On the day before transfection, the cells were inoculated at 4.5×10^5/10 cm^2 and incubated at 37° C. for 15 hours or more in a CO2 incubator adjusted to 5% CO2 concentration. Using Lipofectamine reagent (Invitrogen), transfection was performed according to modifications of the procedure attached to the reagent. When a 6-well plate was used as the incubator, the transfection was performed as follows. Two tubes each having a 1.5 ml volume were prepared and 100 μl each of Opti-MEM medium (Invitrogen) was dispensed in each tube. Next, 1 μg of the GPR35 expression vector obtained in REFERENCE EXAMPLE 1 and 0.5 μg of Gα15 expression vector (Guthrie cDNA Resource Center) were incorporated into one tube and in another tube, 6 μl of Lipofectamine reagent was charged, which were then mixed together. The mixture was settled for 20 minutes at room temperature. To the solution, 800 μl of Opti-MEM medium was added and the resulting solution mixture for transfection was added to the CHO-K1 cells, which had been previously washed with Opti-MEM medium. The cells were then incubated in a CO2 incubator for 6 hours. After the incubation, the cells were rinsed with PBS (Invitrogen), then detached by 0.05% trypsin-EDTA solution (Invitrogen) and recovered by centrifugal operation. The cells obtained were counted and diluted to 5×10^4 cells per 100 μl of the medium. The dilution was dispensed to a black walled 96-well plate (Costar) at 100 μl per well, followed by incubation overnight in a CO2 incubator. Various test samples were added to the CHO-K1 cells, in which the receptor was transiently expressed, by the transfection procedure described above, whereby changes in intracellular calcium levels were assayed on a FLIPR (Molecular Device).
# (§2) To assay the changes in intracellular calcium levels on FLIPR, the following pretreatment was made. First, an assay buffer was prepared to add fluorescence dye Fluo-3AM (DOJIN) to the cells, or to wash the cells immediately before the FLIPR assay. A solution was prepared by adding 20 ml of 1M HEPES (pH 7.4) (DOJIN) to 1000 ml of HBSS (Invitrogen) (hereinafter HBSS/HEPES solution). To the solution, there was added 10 ml of a solution obtained by dissolving 710 mg of Probenecid (Sigma) in 5 ml of 1N NaOH and further adding 5 ml of HBSS/HEPES solution thereto and mixing them. The resulting solution was used as an assay buffer. Next, 50 μg of Fluo-3AM was dissolved in 21 μl of DMSO (DOJIN), and an equal volume of 20% pluronic acid (Molecular Probes) was added to the solution. After mixing them, the mixture was added to 10.6 ml of an assay buffer supplemented with 105 μl of fetal calf serum to give a fluorescence dye solution. After the medium for the transfected CHO-K1 cells was removed, the fluorescence dye solution was immediately dispensed at 100 μl each per well and incubation was carried out in a CO2 incubator for an hour to take up the fluorescence dye into the cells. The incubated cells were washed with the assay buffer described above and set on FLIPR. Test samples to be added to the receptor-expressed CHO-K1 cells were prepared using the assay buffer and simultaneously set on FLIPR.
# After the pretreatment described above was made, changes in intracellular calcium levels by the addition of various test samples were assayed on FLIPR. […]
# GPR35 [1] = target: T1, GPR35 (Homo sapiens, UniProt Q9HC97, S294R); test: Changes in intracellular calcium levels on FLIPR, CHO-K1 cells transiently co-expressing GPR35 and Gα15; parameters: The resulting fragment (ca. 1 kb) was introduced into vector pAKKO-111; expressed in transfected cells; host or cells: CHO-K1 (ATCC), transient transfection; conditions: Fluo-3AM, 0.3-10 μM shown for DNQX and ellagic acid (FIG. 1, 2)
# T1 sequence (Q9HC97 whole entry S294R, the tested form may be a part): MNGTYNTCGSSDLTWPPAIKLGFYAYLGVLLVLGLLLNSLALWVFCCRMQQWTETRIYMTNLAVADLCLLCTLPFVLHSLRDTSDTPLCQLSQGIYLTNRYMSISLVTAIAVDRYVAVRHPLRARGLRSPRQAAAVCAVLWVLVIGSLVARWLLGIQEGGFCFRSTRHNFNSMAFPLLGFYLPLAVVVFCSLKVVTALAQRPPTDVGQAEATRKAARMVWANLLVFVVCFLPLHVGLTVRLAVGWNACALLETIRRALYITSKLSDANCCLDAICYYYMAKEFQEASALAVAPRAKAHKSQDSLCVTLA
# Experimental: as §1, §2
# After the pretreatment described above was made, changes in intracellular calcium levels by the addition of various test samples were assayed on FLIPR.
# mouse GPR35 = target: T2, mouse GPR35 (Mus musculus, UniProt Q9ES90, D300Y/S286F); test: Reactivity on FLIPR, CHO-K1 cells transfected with mouse GPR35 expression vector
# T2 construct: the digestion product was inserted into plasmid vector pAKKO-111H; expressed in transfected cells; host or cells: CHO-K1 cells
# T2 sequence (Q9ES90 whole entry S286F/D300Y): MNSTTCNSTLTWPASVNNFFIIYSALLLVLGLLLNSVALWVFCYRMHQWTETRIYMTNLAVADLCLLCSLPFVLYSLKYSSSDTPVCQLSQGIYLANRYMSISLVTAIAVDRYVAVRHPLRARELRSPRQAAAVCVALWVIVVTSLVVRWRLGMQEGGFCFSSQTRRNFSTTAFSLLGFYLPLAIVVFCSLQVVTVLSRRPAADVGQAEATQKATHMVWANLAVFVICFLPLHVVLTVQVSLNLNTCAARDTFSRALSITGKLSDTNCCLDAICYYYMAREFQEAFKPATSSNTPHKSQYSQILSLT
# Experimental: The CHO-K1 cell line (purchased from ATCC) was incubated in HAM F-12 medium (Invitrogen) supplemented with 10% fetal calf serum, unless otherwise indicated. On the day before transfection, the cells were inoculated at 4.5×10^5/10 cm^2 and incubated at 37° C. for 15 hours or more in a CO2 incubator adjusted to 5% CO2 concentration. Using Lipofectamine reagent (Invitrogen), transfection was performed according to modifications of the procedure attached to the reagent. When a 6-well plate was used as the incubator, the transfection was performed as follows. Two tubes each having a 1.5 ml volume were prepared and 100 μl each of Opti-MEM medium (Invitrogen) was dispensed in each tube. […] The cells obtained were counted and diluted to 5×10^4 cells per 100 μl of the medium. […]
# To assay the changes in intracellular calcium levels on FLIPR, the following pretreatment was made. First, an assay buffer was prepared to add fluorescence dye Fluo-3AM (DOJIN) to the cells, or to wash the cells immediately before the FLIPR assay. […] After mixing them, the mixture was added to 10.6 ml of an assay buffer supplemented with 105 μl of fetal calf serum to give a fluorescence dye solution. […]
# GPR35 [2] = target: T1, GPR35; test: Changes in intracellular calcium levels on FLIPR, CHO cell line stably co-expressing human GPR35 and Gα16; parameters: expressed in transfected cells
# Experimental: The Gα16-stably expressed cell line (Gα16/CHO cell line) as a host cell was prepared by transfecting the Gα16 expression vector (Guthrie cDNA Resource Center) into CHO cells in a conventional manner and incubating at 37° C. under 5% CO2 in αMEM medium (containing nucleic acid; Invitrogen) supplemented with 10% fetal calf serum (Invitrogen), 50 units/ml penicillin/50 ug/ml streptomycin (CAMBREX) and 1 mg/ml geneticin (Invitrogen). The cells that were incubated for 2 days in αMEM medium (containing nucleic acid) supplemented only with 10% fetal calf serum charged in a 75 cm^2 flask were used for the transfection. The transfection was carried out using Lipofectamine reagent (Invitrogen) by a modification of the protocol attached to the reagent. First, 2 centrifuge tubes each having a 15 ml volume were prepared and 600 μl each of Opti-MEM medium (Invitrogen) was dispensed in each tube. Next, 4.8 μg of the expression vector was charged in one tube and in another tube 36 μl of Lipofectamine reagent was charged, which were mixed together. The mixture was settled for 20 minutes at room temperature. […] The cells obtained were counted and diluted with αMEM medium (containing no nucleic acid; Invitrogen) supplemented only with 10% dialyzed fetal calf serum to have 0.3, 1.5 and 7.5 cells per 100 μl of the medium. […]
reactivity of mouse GPR35 (FLIPR) (mouse GPR35),intracellular calcium levels (GPR35 [2]),Compound,response (increased intracellular calcium levels) in control cells (control CHO-K1 cells),response (increased intracellular calcium levels) (GPR35 [1])
,,"O=C1N=c2cc([N+](=O)[O-])cc([N+](=O)[O-])c2=NC1=O [5,7-dinitroquinoxaline-2,3-dione]",not observed,dose-dependently responded (increased intracellular calcium levels)
,,"N#Cc1cc2c(cc1[N+](=O)[O-])=NC(=O)C(=O)N=2 [6-cyano-7-nitroquinoxaline-2,3-dione]",not observed,dose-dependently responded (increased intracellular calcium levels)
responsive,increased,O=c1oc2c(O)c(O)cc3c(=O)oc4c(O)c(O)cc1c4c23 [ellagic acid],not observed,dose-dependently responded (increased intracellular calcium levels)
